Laboratory results taken from ChEMBL document CHEMBL3217668, “3-Formylchromone based topoisomerase II inhibitors: discovery of potent leads” (Medchemcomm, 2013).
Active and inactive are the calls of the source. No cut-off for these calls is given here.

Tests used:
[1] = biological target: T1, DNA topoisomerase 2-alpha (Homo sapiens, UniProt P11388); test: Inhibition of human topoisomerase-2alpha-mediated kDNA decatenation at 100 uM after 30 mins by agarose gel electrophoresis
PC-3 = test: Cytotoxicity against human PC3 cells assessed as cell survival after 48 hrs by MTT assay; assay type: functional; settings: PC-3, 48 h, read-out: LC50 (the source's name)
Nucleic Acid [2] = test: Binding affinity to Escherichia coli plasmid DNA assessed as intercalation at 100 uM after 20 mins by agarose gel electrophoresis; assay type: nucleic-acid assay
[3] = biological target: T1, DNA topoisomerase 2-alpha; test: Inhibition of human topoisomerase-2alpha-mediated supercoiled pRYG DNA relaxation at 100 uM after 30 mins by agarose gel electrophoresis
[4] = biological target: T1, DNA topoisomerase 2-alpha; test: Inhibition of human topoisomerase-2alpha-mediated kDNA decatenation after 30 mins by agarose gel electrophoresis
Nucleic Acid [5] = test: Binding affinity to Escherichia coli plasmid DNA assessed as intercalation at 1 ug/mL after 20 mins by agarose gel electrophoresis; assay type: nucleic-acid assay

T1 sequence (P11388 whole entry): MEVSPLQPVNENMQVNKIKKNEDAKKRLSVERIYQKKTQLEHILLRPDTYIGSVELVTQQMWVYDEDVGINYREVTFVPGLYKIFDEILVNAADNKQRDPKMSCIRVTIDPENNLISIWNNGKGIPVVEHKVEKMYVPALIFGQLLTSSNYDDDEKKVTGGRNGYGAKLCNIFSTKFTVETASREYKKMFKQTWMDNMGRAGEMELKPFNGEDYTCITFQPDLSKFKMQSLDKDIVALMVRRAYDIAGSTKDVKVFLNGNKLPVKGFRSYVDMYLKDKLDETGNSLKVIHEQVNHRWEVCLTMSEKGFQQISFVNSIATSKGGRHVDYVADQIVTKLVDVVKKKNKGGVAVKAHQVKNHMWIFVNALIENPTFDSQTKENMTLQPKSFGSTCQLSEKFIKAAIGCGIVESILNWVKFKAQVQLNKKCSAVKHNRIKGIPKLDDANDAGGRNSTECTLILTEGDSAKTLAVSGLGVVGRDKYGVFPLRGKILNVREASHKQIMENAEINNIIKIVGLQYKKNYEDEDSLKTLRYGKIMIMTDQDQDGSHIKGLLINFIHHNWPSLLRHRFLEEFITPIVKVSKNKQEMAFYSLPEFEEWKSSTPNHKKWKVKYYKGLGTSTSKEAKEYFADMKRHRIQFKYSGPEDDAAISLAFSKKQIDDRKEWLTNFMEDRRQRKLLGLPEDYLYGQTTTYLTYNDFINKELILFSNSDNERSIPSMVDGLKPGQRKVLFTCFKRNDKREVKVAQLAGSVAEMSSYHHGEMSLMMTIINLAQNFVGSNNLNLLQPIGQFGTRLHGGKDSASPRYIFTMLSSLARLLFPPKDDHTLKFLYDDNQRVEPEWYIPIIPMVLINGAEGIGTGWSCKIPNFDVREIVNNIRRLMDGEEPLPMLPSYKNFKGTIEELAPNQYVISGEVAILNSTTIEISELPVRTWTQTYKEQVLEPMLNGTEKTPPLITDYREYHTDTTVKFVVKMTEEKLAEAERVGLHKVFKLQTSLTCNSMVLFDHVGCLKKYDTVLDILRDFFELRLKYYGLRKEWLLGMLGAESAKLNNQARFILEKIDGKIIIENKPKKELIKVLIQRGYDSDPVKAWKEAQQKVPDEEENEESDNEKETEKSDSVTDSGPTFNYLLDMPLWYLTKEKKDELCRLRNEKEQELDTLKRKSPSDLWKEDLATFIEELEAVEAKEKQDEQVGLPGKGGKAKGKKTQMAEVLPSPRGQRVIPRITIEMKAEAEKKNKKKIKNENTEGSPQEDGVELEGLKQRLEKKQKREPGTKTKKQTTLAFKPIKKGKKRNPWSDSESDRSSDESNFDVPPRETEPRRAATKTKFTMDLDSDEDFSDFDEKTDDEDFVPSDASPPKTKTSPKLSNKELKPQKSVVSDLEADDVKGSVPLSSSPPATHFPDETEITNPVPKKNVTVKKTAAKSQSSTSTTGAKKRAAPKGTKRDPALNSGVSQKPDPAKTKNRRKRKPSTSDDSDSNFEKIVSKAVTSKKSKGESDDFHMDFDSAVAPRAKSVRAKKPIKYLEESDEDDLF

Row | Compound | inhibition [1] | CC50 (PC-3) [µM] | Activity (Nucleic Acid [2]) | inhibition [3] | IC50 [4] [µM] | Activity (Nucleic Acid [5])
1 | CN(c1ccccc1)c1oc2ccc(Cl)cc2c(=O)c1C=O | Active | 2.1 | inactive | Active |  | 
2 | O=Cc1c(Nc2ccccc2)oc2cc(Cl)ccc2c1=O | Active | 2.5 | inactive | Active |  | 
3 | COc1cc([C@@H]2c3cc4c(cc3[C@@H](O[C@@H]3O[C@@H]5CO[C@@H](C)O[C@H]5[C@H](O)[C@H]3O)[C@H]3COC(=O)[C@H]23)OCO4)cc(OC)c1O [ETOPOSIDE] | Active | 7.5 | inactive | Active |  | 
4 | O=Cc1c(Nc2ccccc2)oc2ccccc2c1=O | Active | 8.2 | inactive | Active |  | 
5 | O=Cc1c(Nc2ccccc2)oc2ccc(F)cc2c1=O | Active | 8.6 | inactive | Active |  | 
6 | O=Cc1coc2ccc(Cl)cc2c1=O | Active | 5.7 | inactive | Active |  | 
7 | CN(c1ccccc1)c1oc2ccccc2c(=O)c1C=O |  | 0.5 | inactive | Active | 67.9 | 
8 | CC[n+]1c(-c2ccccc2)c2cc(N)ccc2c2ccc(N)cc21 |  |  |  |  |  | Active
9 | O=Cc1c(Nc2ccccc2)oc2ccc(Cl)cc2c1=O | Active | 8.3 | inactive | Active |  | 
